{
  "source": "patent US20100120703A1",
  "about": "“COMPOSITIONS AND METHODS FOR TREATING CANCER” (priority 2007, published 2010)",
  "key": {"human colon cancer cells": {"test_system": "human colon cancer cells", "details": "cited from earlier work"}, "Clone 9 cells": {"test_system": "Clone 9 cells", "experiment": "Neutral red cell viability assay", "type": "cell-based, rat", "details": "SIN up to 1,000 μM, 72 hours", "source_text": "(§1) The neutral red (NR) cytotoxicity assay is a chemosensitivity assay for measuring cell survival/viability, based on the ability of viable cells to incorporate and bind neutral red, a supravital dye. NR is a weak cationic dye that readily penetrates cell membranes by non-ionic diffusion, accumulating intracellularly in lysosomes, where it binds with anionic sites in the lysosomal matrix. Alterations of the cell surface or the sensitive lysosomal membrane lead to lysosomal fragility and other changes that gradually become irreversible. Such changes brought about by the action of xenobiotics result in a decreased uptake and binding of NR. It is thus possible to distinguish between viable, damaged, or dead cells. (Babich, H et al, 1990)\n(§2) Three different cell lines HepG2, WRL-68 and Clone 9 cell lines were used in the experiment. HepG2 is a human hepatoblastoma cell line. It is a well known cell model in anti-HCC studies (Alshatwi A A, et al, 2006). WRL-68 is a human normal liver embryo cell line that has a morphologic structure similar to hepatocytes and hepatic primary cultures (Gutierrez-Ruiz, et al, 1994). This cell line was used as the control. Clone 9 is the rat Sprague Dawley (SD) liver normal cell line. […]\n(§3) HepG2, WRL-68 and Clone 9 cells were grown in complete culture medium (RPMI or DMEM), trypsinized and washed. […] The color was measured at OD540nm."}, "WRL-68 cells": {"test_system": "WRL-68 cells", "experiment": "Neutral red cell viability assay", "type": "cell-based, human", "details": "SIN up to 1,000 μM, 72 hours", "source_text": "as §1, §2, §3"}, "[1]": {"test_system": "p53, Mdm2, p21, PCNA, Bax and Bcl-2", "experiment": "Gene expression assay (semi-quantitative PCR, Western blot) in rat liver, progression stage", "type": "in vivo", "protocol": "RNA was extracted from 300 μg of rat liver and was measured as described in foregoing examples Three micrograms of total RNA, 1 μl of an oligo dT primer and certain volume of RNase-Free H2O were mixed into a total volume of 12 μl. The mixture was incubated at 70° C. for 10 minutes and immediately chilled on ice. Four microliters of 5× First Stand Buffer, 2 μl of 0.1M DTT, 1 μl of 10 mM dNTP mix, and 1 μl of SuperScript II were added to each tube and mixed. The tubes were incubated at 42° C. for 50 minutes followed by 70° C. for 15 minutes before chilling on ice. The cDNA was then ready for PCR amplification.\nThe PCR reactions were performed in a final volume of 20 μl in a Gene Amp® PCR system. The PCR reaction mix contained 1 μl of cDNA synthesized previously, 2 μl 10×PCR Buffer, 0.4 μl 10 mM dNTP mix, 1.2 μl 25 mM MgCl2, 1 μl 10 mM primer mix, 0.2 μl recombinant Taq polymerase, and 14.2 μl autoclaved ddH2O.\nThe intensity of the PCR products was analyzed by the software Image J. The band intensity of the β-actin gene was measured as an internal control. The ratio of the band intensities of the target gene to the β-actin gene was used to compare the mRNA level of each gene between different treatment groups.\nThree hundred micrograms of each liver sample were homogenized in the Solution C at 1 g/ml using a glass homogenizer on ice. The homogenate was transferred to a microcentrifuge tube and centrifuged at 13,000 rpm for 20 minutes. The supernatant was collected and equal volume of 2× sample loading dye was added to each sample. The samples were stored at −20° C. The protein was used for immunodetection of the expression level of Bax, Bcl-2, PCNA and p21.\nThree hundreds micrograms of each liver sample were homogenized in Solution A at 1 g/ml using the glass homogenizer on ice. The homogenate was transferred into a microcentrifuge tube and centrifuged at 3,000 rpm for 5 minutes to spin down the unbroken tissue. The supernatant was collected and incubated on ice for 5 minutes and then centrifuged at 5,000 rpm for 5 minutes. The supernatant was discarded and the pellet was lysed by 100 μl Solution B. The lysing process lasted for 20 minutes on ice. After incubation, the solution was centrifuged at 12,000 rpm for 15 seconds to spin down the cell debris. The supernatant was collected and equal volume of 2× sample loading dye was added to each sample. The samples were ready for immunodetection of the expression level of p53 and mdm2.\nEach of the transferred membrane blots was incubated in 4 ml TBST with 5% non-fat milk powder and primary antibody overnight at 4° C. After incubation, the membrane was washed in TBST buffer for 10 minutes for 3 times. Each transferred membrane blot was then incubated in 4 ml TBST and 5% non-fat milk powder with secondary antibody for 1 hour at room temperature. After incubation, the membrane was washed in TBST buffer for 10 minutes for 3 times. The membrane was ready for ECL reaction.\nThe films that captured the signal from the ECL reaction were scanned into the computer and analyzed by the software Image J to read the density of darkness.\nRats in the negative control group received weekly intraperitoneal (i.p.) injection of DMSO for the first 2 weeks and then Corn Oil for 28 weeks. Rats in the positive control and SIN-treatment groups both received weekly intraperitoneal (i.p.) injection of DEN for the first 2 weeks and then CCl4 for 28 weeks. Two weeks of fasting were inserted between DEN treatment and CCl4 treatment. Starting from 33rd week, negative and positive control groups received oral administration of water once a day. Sinigrin with dosage 15 mg/kg was administered orally to the SIN-treatment group daily for 24 weeks. After treatment, the rats were killed. Blood and liver were collected and processed as described in the foregoing examples.\nThe gene expression assays were performed as described in the foregoing examples. […]"}},
  "data": [
    {"smiles": "C=CC/C(=N/OS(=O)(=O)[O-])S[C@@H]1OC(CO)[C@@H](O)C(O)C1O.[K+]", "note": "(stereo partly drawn) [SIN, sinigrin]", "values": [
      {"measurement": "action on apoptosis and cell proliferation", "setting": "human colon cancer cells", "result": "might be apoptosis- and cell proliferation-independent"},
      {"measurement": "cell viability of Clone 9 cells (healthy liver cells)", "setting": "Clone 9 cells", "result": "no decrease in cell viability was observed"},
      {"measurement": "cell viability of WRL-68 cells (healthy liver cells)", "setting": "WRL-68 cells", "result": "no decrease in cell viability was observed"},
      {"measurement": "Mdm2 mRNA expression", "setting": "[1]; RT-PCR", "result": "reduced back to levels near or even lower than the negative control"},
      {"measurement": "p53 mRNA expression", "setting": "[1]; RT-PCR", "result": "reduced back to levels near or even lower than the negative control"},
      {"measurement": "Bax protein expression (decreased in positive group)", "setting": "[1]; Western blot", "result": "reversed"},
      {"measurement": "Bcl-2 protein expression (increased in positive group)", "setting": "[1]; Western blot", "result": "reversed"},
      {"measurement": "Mdm2 protein expression (increase in positive control)", "setting": "[1]; Western blot", "result": "partially reversed"},
      {"measurement": "PCNA protein expression (increased in positive group)", "setting": "[1]; Western blot", "result": "reversed"},
      {"measurement": "p21 protein expression", "setting": "[1]; Western blot", "result": "restored its expression to a level substantially higher than the negative control"},
      {"measurement": "total p53 protein level", "setting": "[1]; Western blot", "result": "significantly increased"},
      {"measurement": "wild type p53 protein level", "setting": "[1]; Western blot", "result": "restored its expression to a level even higher than that of the negative control"}
    ]}
  ]
}
